From patent US20220195379A1, “METHOD OF TESTTING INHIBITORY EFFECT OF CARBON DIOXIDE ON SPOILAGE CAUSING ABILITY OF SHEWANELLA PUTREFACIENS” (Shanghai Ocean University, priority 2022, published 2022)

Tested on: Shewanella putrefaciens
Assay: Inhibitory effect of CO2 on growth and spoilage causing ability, inoculated fillets in modified atmosphere packaging
Details: stored in the presence of CO2, versus control group
Method: Pre-frozen Shewanella putrefaciens (stored at −80° C. or less) was thawed at 30±2° C., inoculated to 5-10 mL of TSB, and cultured under shaking for 12 h to obtain a primary culture solution.
The primary culture solution was inoculated into another TSB liquid medium at an inoculation amount of 1% by weight, which was cultured under shaking for 6 h to obtain a bacterial suspension with a concentration of 10^7 CFU/mL.
A large yellow croaker with a weight of 1000±50 g was processed, and cut into a plurality of 100-g slices, which were washed with 0-4° C. water, and dried to prepare a plurality of samples. The large yellow croaker was oxygenated in a foam box during the transportation, and processed by bloodletting, evisceration, and head removal.
The samples were immersed into a 75% ethanol solution for 30 s, washed with sterile distilled water 3 times, and subjected to ultraviolet sterilization for 20 min to obtain a plurality of sterilized samples, where a mass ratio of the ethanol solution to the samples was 3:1. The bacterial suspension was diluted to a concentration of 10^4 CFU/mL, and inoculated to the sterilized samples to obtain a plurality inoculated samples, where the diluted bacterial suspension was 10% by weight of each sterilized sample such that a bacterial concentration of each sterilized sample was lower than or equal to 10^5 CFU/mL. […]

O=C=O [CO2, carbon dioxide]
Growth and reproduction rate of the Shewanella putrefaciens: significantly lower than that of the control group
